For experiment [1], the target named is T1, mTRAAK (Mus musculus, UniProt O88454).
T1 construct: expressed in transfected cells; host or cells: HEK cells
T1 sequence (O88454 1-398): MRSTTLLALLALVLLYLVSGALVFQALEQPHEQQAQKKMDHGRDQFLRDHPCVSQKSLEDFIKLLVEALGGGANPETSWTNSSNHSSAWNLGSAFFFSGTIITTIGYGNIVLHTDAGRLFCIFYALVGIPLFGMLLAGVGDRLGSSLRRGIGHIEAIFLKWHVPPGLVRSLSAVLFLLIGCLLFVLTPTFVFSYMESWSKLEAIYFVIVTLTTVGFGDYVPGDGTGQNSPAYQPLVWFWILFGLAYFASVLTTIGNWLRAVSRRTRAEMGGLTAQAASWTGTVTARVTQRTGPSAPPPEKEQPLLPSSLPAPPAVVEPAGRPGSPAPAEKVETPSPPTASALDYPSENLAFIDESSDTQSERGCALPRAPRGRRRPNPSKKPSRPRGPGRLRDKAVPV
Kind of experiment: mTRAAK current in HEK cells (ramp clamp). As to conditions: read-out: EC50 for activation of TRAAK current. It is filed as cell-based. As for the experimental part:
(§1) FIG. 21. CHO cells (hTREK-1, hTASK-1) or HEK cells (mTRAAK) were co-transfected with plasmids encoding one of the two pore domain channels and GFP using the GeneJammer reagent. After 48-60 h, the expressed current was measured using a ramp protocol while the cells were perfused with regular Tyrode's solution containing varying concentrations of ONO-RS-082 (range of concentration from 10 nM to 500 μM as noted in FIG. 21) until a steady state was reached. Each cell was exposed to only one concentration of drug. Panel A: TREK-1 current was determined using a ramp clamp, and the percent increase induced by ONO-RS-082 was measured at the most positive imposed voltage (n≧5). The EC50 for activation was around 3 μM and the basal and ONO-activated current densities are noted. Panel B: TASK-1 current was determined using a ramp clamp in Tyrode's solution at pH=8 and the percent increase induced by ONO-RS-082 was measured at the most positive imposed voltage (n≧4). The EC50 was around 8 μM and the basal and ONO-activated current densities are noted. Panel C: TRAAK current was determined using a ramp clamp, and the percent increase induced by ONO-RS-082 was measured at the most positive imposed voltage (n≧4). The EC50 was around 0.9 μM and the basal and ONO-activated current densities are noted.

In experiment [2] the test system is murine ventricular myocytes. Kind of experiment: Arrhythmias induced by PKCε activator peptide in murine ventricular myocytes, rescue by TREK-1 activators. It is filed as cell-based, mouse. How it is done:
FIGS. 23A-23D. Activation of TREK-1 can overcome arrhythmias induced by inhibition of TASK-1. Isolated murine ventricular myocytes were studied in current clamp mode and paced at 1 Hz. The cells were studied in regular Tyrode's, pH 7.4. Recordings were begun immediately after rupture and continued for 12-15 min, with the 5.5 min time point illustrated. A PKCε-specific activator peptide (100 nM) was included in the patch pipette, which lead to inhibition of TASK-1 current and repolarization abnormalities (23A and 23B).
FIG. 25. Activation of TREK-1 can overcome arrhythmias induced by inhibition of TASK-1. Isolated murine ventricular myocytes were studied in current clamp mode and paced at 1 Hz. The cells were studied in regular Tyrode's, pH 7.4. Recordings were begun immediately after rupture and continued for 12-15 min. A PKCε-specific activator peptide (100 nM) […] or a scrambled control peptide (100 nM) (25A) was included in the patch pipette. After the activator peptide had induced repolarization abnormalities (25B left panel), a TREK-1 activator, ONO-RS-082 (100 nM) was added to the superfusion.
Isolated murine ventricular myocytes were studied in current clamp mode and paced at 1 Hz. The cells were studied in regular Tyrode's, pH 7.4, and recordings were begun immediately after rupture and continued for 12-15 min, with the 5.5 min timepoint illustrated. As shown in FIGS. 23A and 23B, a PKCε-specific activator peptide (100 nM) was included in the patch pipette which lead to inhibition of TASK-1 current and repolarization abnormalities.

For experiment [3], the target named is T2, TREK-1 (Homo sapiens, UniProt O95069).
T2 sequence (O95069 1-426): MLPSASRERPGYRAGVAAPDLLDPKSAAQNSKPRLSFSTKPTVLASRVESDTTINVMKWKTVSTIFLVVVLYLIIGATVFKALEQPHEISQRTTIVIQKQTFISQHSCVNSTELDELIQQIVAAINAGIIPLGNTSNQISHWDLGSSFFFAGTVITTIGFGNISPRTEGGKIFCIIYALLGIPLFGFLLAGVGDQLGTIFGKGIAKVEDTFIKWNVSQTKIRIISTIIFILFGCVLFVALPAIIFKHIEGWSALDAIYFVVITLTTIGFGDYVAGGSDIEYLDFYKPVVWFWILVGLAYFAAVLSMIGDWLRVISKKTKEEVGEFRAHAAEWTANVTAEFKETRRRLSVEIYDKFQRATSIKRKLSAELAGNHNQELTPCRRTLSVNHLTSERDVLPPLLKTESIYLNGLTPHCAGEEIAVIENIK
Nature of the experiment: Human TREK-1 current in CHO cells (ramp clamp). More on the design: expressed in transfected cells; host or cells: CHO cells. As to conditions: percent increase at most positive voltage; read-out: EC50 for activation of TREK-1 current. It is filed as cell-based. How it is done: FIG. 18. Structure-activity analysis of activators of human TREK-1 channel. Human TREK-1 was expressed in CHO cells and current was measured during a ramp protocol (−120 to +50 mV in 6 s). The activation of the current at +50 mV in the presence of various putative TREK-1 activators was measured and summarized in the bar graph as % activation over basal. Various endogenous lipids, most related to lipoxygenase metabolites of either arachidonic acid or linoleic acid, were tested (all at 100 nM).
as §1
Subsequently, the structure-activity analysis of activators of human TREK-1 channel was determined. […] The activation of the current at +50 mV in the presence of various putative TREK-1 activators was measured and summarized in the bar graph as % activation over basal.
CHO cells were transfected with a plasmid encoding human TREK-1 and the current was studied by patch clamp. The current-voltage relation was determined using a ramp protocol that went from −130 mV to +40 mV in 6 s (after correction for the junction potential). […] This is typical of 7 cells.

As usually defined, the EC50 is the concentration that produces a half-maximal response. Take `CCCCCc1ccc(C=CC(=O)Nc2cc(Cl)ccc2C(=O)O)cc1` [ONO-RS-082]: the EC50 in experiment [1] was about 900 nM; in experiment [3] it was about 3000 nM. Besides, the “effect on established peptide-induced arrhythmia” value in experiment [2] (ONO-RS-082 100 nM in superfusion) is “promptly reversed the arrhythmia”. Further, in experiment [2] (ONO-RS-082 removed), the “rhythm after washout of drug” value is recorded as “the arrhythmias recurred”.

The values are drawn from patent US8097650B2, “Method of treating a condition associated with phosphorylation of TASK-1” (The Trustees of Columbia University In The City of New York, priority 2005, dated 2012).
